For one assay, the species on record is Homo sapiens. The assay is described as follows: Selectivity index, ratio of IC50 for recombinant human MAOA expressed in baculovirus infected BTI insect cells to IC50 for recombinant human MAOB expressed in baculovirus infected BTI insect cells.
In assay [1] the target is T1, Amine oxidase [flavin-containing] A (Homo sapiens, UniProt P21397).
T1 sequence (P21397 whole entry): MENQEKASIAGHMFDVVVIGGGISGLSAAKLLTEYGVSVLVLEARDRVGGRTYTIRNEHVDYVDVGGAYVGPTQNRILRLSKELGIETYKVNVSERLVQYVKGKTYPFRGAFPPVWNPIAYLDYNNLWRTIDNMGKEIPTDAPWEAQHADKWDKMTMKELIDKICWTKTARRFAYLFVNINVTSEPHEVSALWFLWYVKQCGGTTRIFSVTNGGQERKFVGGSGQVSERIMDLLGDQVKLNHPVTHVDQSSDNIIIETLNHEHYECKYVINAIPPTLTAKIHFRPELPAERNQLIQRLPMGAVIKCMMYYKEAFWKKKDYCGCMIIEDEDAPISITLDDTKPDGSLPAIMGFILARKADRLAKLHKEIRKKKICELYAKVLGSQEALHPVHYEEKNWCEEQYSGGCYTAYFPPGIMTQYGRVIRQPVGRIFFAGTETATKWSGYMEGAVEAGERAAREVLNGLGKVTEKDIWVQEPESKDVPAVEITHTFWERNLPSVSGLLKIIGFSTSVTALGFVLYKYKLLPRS
The assay can be described thus: Inhibition of recombinant human MAOA expressed in baculovirus infected BTI insect cells using p-tyramine as substrate preincubated for 30 mins followed by substrate addition and measured over 15 mins by Amplex red reagent/horseradish peroxidase coupled fluorescence assay.

In assay [2] the target is T2, Amine oxidase [flavin-containing] B (Homo sapiens, UniProt P27338).
T2 sequence (P27338 whole entry): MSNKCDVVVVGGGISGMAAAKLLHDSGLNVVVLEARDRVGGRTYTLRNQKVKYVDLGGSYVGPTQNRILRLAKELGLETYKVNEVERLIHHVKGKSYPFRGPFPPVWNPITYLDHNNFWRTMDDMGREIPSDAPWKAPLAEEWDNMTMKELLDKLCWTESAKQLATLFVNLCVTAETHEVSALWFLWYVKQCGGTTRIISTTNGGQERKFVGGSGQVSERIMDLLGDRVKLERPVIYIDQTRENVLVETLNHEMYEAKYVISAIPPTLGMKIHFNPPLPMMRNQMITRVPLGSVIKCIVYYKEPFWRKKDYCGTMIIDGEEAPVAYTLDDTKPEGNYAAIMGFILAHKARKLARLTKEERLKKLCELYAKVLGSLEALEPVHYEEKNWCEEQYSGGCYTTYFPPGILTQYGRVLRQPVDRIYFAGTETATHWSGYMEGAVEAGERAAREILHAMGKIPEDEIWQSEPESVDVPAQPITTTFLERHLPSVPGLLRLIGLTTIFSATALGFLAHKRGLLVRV
The assay is described as follows: Inhibition of recombinant human MAOB expressed in baculovirus infected BTI insect cells using p-tyramine as substrate preincubated for 30 mins followed by substrate addition and measured over 15 mins by Amplex red reagent/horseradish peroxidase coupled fluorescence assay.

This is an account of results in ChEMBL document CHEMBL4316606, “Discovery of novel 2,3-dihydro-1H-inden-1-amine derivatives as selective monoamine oxidase B inhibitors” (Bioorg Med Chem Lett, 2019).

Broadly, the IC50 is the concentration at which inhibition is half-maximal.

Take `C#CCNC1CCc2c(NCc3ccc(C)cc3)cccc21` (stereo not drawn): the Ratio IC50 in the assay listed under Homo sapiens was found to be 172. The results for the IC50 in assay [1] and in assay [2] were 43100 nM and 250 nM, respectively.

As for `C#CCNC1CCc2c(OCCc3cc(NC(=O)c4cccc(F)c4)ccc3Cl)cccc21` (stereo not drawn), the IC50 in assay [2] is above 20000 nM.

With `C#CCNC1CCc2c(OCCc3cc(NC(=O)C(C)(C)C)ccc3F)cccc21` (stereo not drawn), in assay [2], the IC50 is above 20000 nM.

Regarding `C#CCNC1CCc2c(OCCc3cc(NC(=O)c4ccc(F)cc4)ccc3Cl)cccc21` (stereo not drawn), the IC50 in assay [2] was 5100 nM.

As for `C#CCNC1CCc2c(OCCc3cc(NC(C)=O)ccc3Cl)cccc21` (stereo not drawn), the Ratio IC50 in the assay filed under Homo sapiens is 144. Also, the IC50 in assay [1] amounted to 85200 nM; in assay [2] it was 590 nM.

Take `C#CCNC1CCc2c(NCc3ccccc3)cccc21` (stereo not drawn): the IC50 in assay [2] was above 20000 nM.

`C#CCNC1CCc2c(NCc3cccc(C)c3)cccc21` (stereo not drawn): the IC50 in assay [2] stood at 710 nM.

Consider `C#CCNC1CCc2c(OCCc3cc(NC(=O)COC(C)=O)ccc3Cl)cccc21` (stereo not drawn), for which the Ratio IC50 in the assay filed under Homo sapiens amounted to 909. For the same molecule, the half-maximal inhibitory concentration (IC50) in assay [1] was determined as 436000 nM; in assay [2], 480 nM.

On to `C#CCNC1CCc2c(OCCc3cccc4ccccc34)cccc21` (stereo not drawn), for which the concentration for half-maximal inhibition (IC50) in assay [2] stood at 1900 nM.

For the molecule `C#CCNC1CCc2c(SCc3ccc(F)cc3)cccc21` (stereo not drawn), the results for the IC50 in assay [1] and in assay [2] were below 100 nM and 240 nM, respectively.

Consider `C#CCNC1CCc2c(OCCc3cccc(NC(=O)c4ccc(Cl)cc4)c3)cccc21` (stereo not drawn), for which, in assay [2], the IC50 amounted to 360 nM.

With `C#CCNC1CCc2c(OCCc3cc(NC(=O)c4ccccc4)ccc3Cl)cccc21` (stereo not drawn), in assay [2], the IC50 was above 20000 nM.

Turning to `C#CCNC1CCc2c(OCCc3cc(NC(=O)CO)ccc3Cl)cccc21` (stereo not drawn), the Ratio IC50 in the assay listed under Homo sapiens came out at 934. In addition, the values for the IC50 in assay [1] and in assay [2] were 252000 nM and 270 nM, respectively.

Take `C#CCNC1CCc2c(NCc3ccc(F)cc3)cccc21` (stereo not drawn): in assay [2], the 50% inhibitory concentration (IC50) was 980 nM.

`C#CCNC1CCc2c(NCc3cccc(F)c3)cccc21` (stereo not drawn): the IC50 in assay [2] is 1860 nM.

With `C#CCNC1CCc2c(SCc3ccc(C(C)(C)C)cc3)cccc21` (stereo not drawn), the IC50 in assay [2] is above 20000 nM.

Take `C#CCNC1CCc2c(NCc3cccc(Br)c3)cccc21` (stereo not drawn): the Ratio IC50 in the assay listed under Homo sapiens was 857. The results for the IC50 in assay [1] and in assay [2] were 94300 nM and 110 nM, respectively.

With `C#CCNC1CCc2c(SCc3ccc(Cl)cc3)cccc21` (stereo not drawn), the Ratio IC50 in the assay listed under Homo sapiens was found to be 1.2. Also, the IC50 in assay [1] is 230 nM; in assay [2], 180 nM.

Consider `C#CCNC1CCc2c(OCc3cccc(F)c3)cccc21` (stereo not drawn), for which the IC50 in assay [2] was determined as 2700 nM.

For `C#CCNC1CCc2c(OCCc3cc(NC(=O)c4ccc(Cl)cc4)ccc3Cl)cccc21` (stereo not drawn), the 50% inhibitory concentration (IC50) in assay [2] is above 20000 nM.
